Test [1] relates to A549 human pulmonary cancer cells. Put plainly: MTT test, proliferation of A549. To be noted: Homo sapiens, 72 h, control = 100%, read-out: level of proliferation; for activity at 100 µM: A549, 10^-4 M; for activity at 1 µM: A549, 10^-6 M; for activity at 0.01 µM: A549, 10^-8 M. The test is classed as cell-based. (In general: Tetrazolium dyes change colour on reduction, which living cells bring about.)

Test [2] relates to T-47D human mammary cancer cells. Put plainly: MTT test, proliferation of T-47D. In kind it is cell-based. Conditions: for activity at 100 µM / activity at 1 µM / activity at 0.01 µM: Homo sapiens, T47D, T-47D, 72 h, control = 100%, read-out: level of proliferation; for activity at 100 µM: 10^-4 M; for activity at 1 µM: 10^-6 M; for activity at 0.01 µM: 10^-8 M; for effect on cellular increase, T-47D (in words): MTT test. The method, then:
(§1) The cells that were cultured came from the ATCC (American Type Culture Collection).
(§2) The cellular lines are kept in culture in a monolayer at 37° C. in closed culture dishes (Nunc. Gibco BRL, Life Technologies, Belgium) containing the minimum essential medium (MEM, Gibco) supplemented with 5% of Foetal Calf Serum, (FCS, Gibco), 0.6 mg/ml of glutamine (Gibco) and a mixture of 200 IU/mi of penicillin (Gibco), 200 μg/ml of streptomycin (Gibco) and 0.1 mg/ml of gentamycin (Gibco). The foetal calf serum is decomplemented for 1 hour at 56° C.
(§3) This test is based on the mitochondrial reduction by living metabolically active cells of the MTT (3-(4,5-dimethylthiazol-2-yl)-2,5-diphenyltetrazolium bromide) of yellowish colour into a blue coloured product, formazan. The quantity of formazan obtained is directly proportional to the number of living cells. After incubation of the cells for 24 hours in microplates with 96 flat bottomed wells, the culture medium is replaced by 100 μl of fresh culture medium containing the drug to be tested.
(§4) The microplates are then incubated for 3 hours at 37° C. and centrifuged for 10 minutes at 400 g (GPR centrifuge, Beckman). The MTT solution is replaced by 100 μl of dimethylsulphoxide (Merck). The microplates are agitated (Vari-Shaker, Dynatech) for 10 minutes.
(§5) In the microplates, the control cells like the treated cells were incubated in a medium without the compounds to be tested for 24 hours. The control cells are incubated in a medium without a drug throughout the whole experiment, while the treated cells are incubated in different media. These media contain the molecule to be tested at various concentrations: 10^-8 M, 10^-6 M and 10^-4 M. All the tests are carried out in 6 duplicates.
(§6) The statistical comparisons are carried out according to the Fisher Test:
(§7) The mean optical density measured for each experimental condition is expressed as a percentage in relation to the laid down control condition being equal to 100%.

For test [3], the system named is A-427 human pulmonary cancer cells. Put plainly: MTT test, proliferation of A-427. To be noted: for activity at 0.01 µM / activity at 1 µM / activity at 100 µM: Homo sapiens, A-427, 72 h, read-out: level of proliferation; for effect on cellular increase, A-427 (in words): MTT test.
Test [4] concerns ZR-75-1 human mammary cancer cells. Put plainly: MTT test, proliferation of ZR-75-1. In kind it is cell-based. To be noted: for activity at 100 µM / activity at 1 µM / activity at 0.01 µM: Homo sapiens, 72 h, control = 100%, read-out: level of proliferation; for activity at 100 µM: ZR-75-1, 10^-4 M; for activity at 1 µM: ZR-75-1, 10^-6 M; for activity at 0.01 µM: ZR-75-1, 10^-8 M; for effect on cellular increase, ZR-75-1 (in words): MTT test. On the procedure: as §1, §2, §3, §4, §5, §6, §7

We go through ten compounds from patent US6265423A, “Aromatic polycyclic retinoid-type derivatives, method for preparing same, and use thereof for making pharmaceutical and cosmetic compositions” (priority 1996, dated 2001).

On to `C/C(=C\c1ccc2c(c1)C(C)(C)CCS2)c1ccc(C(=O)O)cc1` [CB12994], for which the activity at 100 µM in test [1] came to 53.2%; in test [2], 1.8%; in test [3], 4.4%; in test [4], 31.8%. Further, the activity at 1 µM in test [1] came out at 89%; in test [2], 51.8%; in test [3], 93.6%; in test [4], 126%. Further, the activity at 0.01 µM in test [1] turned out to be 92.1%; in test [2] it was 67.6%; in test [3], 107%; in test [4] it was 121%.

`C/C(=C\c1ccc2c(c1)C(C)(C)CCS2(=O)=O)c1ccc(-c2nnn[nH]2)cc1` [CB15068, (E) 5-[4-[1-(3',4'-dihydro-4'4'-dimethyl-1',1'-dioxide-2'H-1'-benzothiopyran-6'-yl)-2-propenyl]phenyl]-1H-tetrazole]: in test [1], the activity at 100 µM amounted to 81.8%, the activity at 1 µM is 97.3% and the activity at 0.01 µM was found to be 92.7%. In test [2], the activity at 100 µM came to 32.2%; the activity at 1 µM came out at 87.8%; the activity at 0.01 µM worked out at 101%; the “effect on cellular increase, T-47D (in words)” value is “do not influence the cellular increase of the lineages under consideration”. Besides, in test [3], the activity at 0.01 µM is 88.5%, the activity at 1 µM was found to be 98% and the activity at 100 µM was 24.3%. In test [4], the activity at 100 µM is 59.3%; the activity at 1 µM amounted to 99.9%; the activity at 0.01 µM came out at 99.2%; the “effect on cellular increase, ZR-75-1 (in words)” value is “do not influence the cellular increase of the lineages under consideration”.

In the case of `C/C(=C/c1cc2c(cc1C)C(C)(C)CCC2(C)C)c1ccc(C(=O)O)cc1` [CB32706], the activity at 100 µM in test [1] amounted to 6%; in test [2] it was 0%; in test [3] it was 0.8%; in test [4], 0.7%. Further, the activity at 1 µM in test [1] was 103%; in test [2] it was 88.6%; in test [3], 99.6%; in test [4] it was 93.1%. For the same compound, the activity at 0.01 µM turned out to be 101% in test [1], 94% in test [2], 103% in test [3] and 95% in test [4].

In the case of `C/C(=C/c1ccc2c(c1)C(C)(C)CCS2(=O)=O)c1ccc(-c2nnn[nH]2)cc1` [CB39122, (Z) 5-[4-[1-(3',4'-dihydro-4',4'-dimethyl-1',1'-dioxide-2'H-1'-benzothiopyran-6'-yl)-2-propenyl]phenyl]-1H-tetrazole], the activity at 100 µM came out at 84.8% in test [1], 57.1% in test [2], 27.1% in test [3] and 74.2% in test [4]. Besides, the activity at 1 µM worked out at 98% in test [1], 100% in test [2], 96.5% in test [3] and 97.3% in test [4]. Besides, the activity at 0.01 µM in test [1] was determined as 96.2%; in test [2] it was 102%; in test [3], 93.9%; in test [4], 102%.

With `C/C(=C\c1ccc2c(c1)C(C)(C)CCS2(=O)=O)c1ccc(C(=O)O)cc1` [CB39356], in test [1], the activity at 100 µM is 72%, the activity at 1 µM turned out to be 105% and the activity at 0.01 µM stood at 105%. For the same compound, in test [2], the activity at 100 µM was determined as 36.4%; the activity at 1 µM was 108%; the activity at 0.01 µM is 86%; the “effect on cellular increase, T-47D (in words)” value was “do not influence the cellular increase of the lineages under consideration”. Besides, in test [3], the activity at 0.01 µM was found to be 124%; the activity at 1 µM turned out to be 129%; the activity at 100 µM amounted to 70.7%; the “effect on cellular increase, A-427 (in words)” value is given as “a stimulation of the cellular increase”. For the same compound, in test [4], the activity at 100 µM is 59.6%; the activity at 1 µM turned out to be 148%; the activity at 0.01 µM came out at 133%; the “effect on cellular increase, ZR-75-1 (in words)” value is on record as “do not influence the cellular increase of the lineages under consideration”.

As to `C/C(=C\c1cc2c(cc1C)C(C)(C)CCC2(C)C)c1ccc(-c2nnn[nH]2)cc1` [CB40747, (E) 5-[4-[1-(5,6,7,8-tetrahydro-3,5,5,8,8-pentamethyl-2-naphthalenyl)-2-propenyl]phenyl]-1H-tetrazole], in test [1], the activity at 100 µM came to 0%, the activity at 1 µM amounted to 192% and the activity at 0.01 µM is 176%. In test [2], the activity at 100 µM is 0%, the activity at 1 µM worked out at 85.2% and the activity at 0.01 µM turned out to be 106%. Moreover, in test [3], the activity at 0.01 µM was 100%; the activity at 1 µM is 83.7%; the activity at 100 µM is 1.7%; the “effect on cellular increase, A-427 (in words)” value is “a stimulation of the cellular increase”. For the same compound, in test [4], the activity at 100 µM came out at 0%, the activity at 1 µM turned out to be 107% and the activity at 0.01 µM was found to be 111%.

In the case of `C/C(=C/c1ccc2c(c1)C(C)(C)CCS2)c1ccc(C(=O)O)cc1` [CB41666], the activity at 100 µM was determined as 63.2% in test [1], 28% in test [2], 7.6% in test [3] and 48.5% in test [4]. In addition, the activity at 1 µM was determined as 89.9% in test [1], 69.5% in test [2], 91.2% in test [3] and 115% in test [4]. The activity at 0.01 µM came to 94.5% in test [1], 88.7% in test [2], 83% in test [3] and 112% in test [4].

Turning to `Cc1cc2c(cc1/C=C(\c1ccc(C(=O)O)cc1)C(F)(F)F)C(C)(C)CCC2(C)C` [CB62899, (E) 4-[1-trifluoromethyl-2-(5,6,7,8-tetrahydro-3,5,5,8,8-pentamethyl-2-naphthalenyl)-1-ethenyl]benzoic acid], the activity at 100 µM in test [1] came out at 0.45%; in test [2], 1.7%; in test [3], 0%; in test [4], 0.4%. Further, the activity at 1 µM was determined as 119% in test [1], 73.7% in test [2], 124% in test [3] and 112% in test [4]. The activity at 0.01 µM turned out to be 131% in test [1], 128% in test [2], 115% in test [3] and 112% in test [4].

For `C=C(c1ccc(C(=O)Nc2ccc(O)cc2)cc1)c1cc2c(cc1C)C(C)(C)CCC2(C)C` [CB65801], in test [2], the activity at 100 µM turned out to be 1.6%, the activity at 1 µM was found to be 62.7% and the activity at 0.01 µM is 92.8%. In test [4], the activity at 100 µM worked out at 0.2%, the activity at 1 µM is 93.4% and the activity at 0.01 µM was 138%.

For the compound `Cc1cc2c(cc1C(=O)c1ccc(C(=O)Nc3ccc(O)cc3)cc1)C(C)(C)CCC2(C)C` [CB81616], in test [2], the activity at 100 µM was found to be 1.4%, the activity at 1 µM was 96.7% and the activity at 0.01 µM came to 103%. In addition, in test [4], the activity at 100 µM came to 0%, the activity at 1 µM was determined as 134% and the activity at 0.01 µM stood at 136%.
